From US6210917A, “Method for suppressing multiple drug resistance in cancer cells” (priority 1997, dated 2001)

How the values were obtained:
[1] = cited from earlier work
melanoma = settings: Phase II, melanoma patients; cited from earlier work
A549 NSCLC cells = experiment: tumor xenograft in nude mice, MTAP-deficient A549 cells (FIG. 5); assay type: in vivo, Balb/c athymic nude mice; settings: i.p. every 12 hours; 15 mg/kg per injection 7 days then 22.5 mg/kg 5 days
Method: (§1) 10^7 A549 or A427 NSCLC cells were injected subcutaneously into 6-week old Balb/c athymic nude mice. When tumors had reached approximately 0.4 cm diameter, treatment was begun with L-alanosine or saline by intraperitoneal injection every 12 hours. Mice received 15 mg/kg per injection for 7 days then 22.5 mg/kg for 5 days. Tumor size was measured as the product of perpendicular diameters. The results for treated (n=6 [sample size] for each cell type) vs. control (n=4 [sample size] for each cell type) mice are shown in FIG. 5.

human cancers = settings: cited from earlier work
MV522Q6 cells = experiment: growth of MDR cells by reduction of a tetrazolium dye (FIG. 1A); assay type: cell-based, human; settings: 10 μM; for sensitivity of the resistant cell line to chemotherapy: MV522Q6 compared with MV522, three days
Method: MV522 is a human cancer cell line; MV522Q6 is a variant of the cell line with MDR. Each cell line was grown in a monolayer as and contacted with 10 μM of a chemotherapeutic agent and/or L-alanosine (as shown in FIGS. 1A and 1B). Growth, or the lack thereof, was measured in each population of cells by reduction of a tetrazolium dye after three days in culture.
FIG. 1A is a graph depicting the effect of L-alanosine and different chemotherapeutic agents (vinblastine and taxol) on a MDR cancer cell line (MV522Q6). FIG. 1B is a graph depicting the effect of the same drugs on the cell line before acquisition of resistance (MV522). […] However, the adenine synthesis inhibitor L-alanosine is nearly 10 times as potent in the resistant cell line than the other agents tested.

[2] = toxicity / body weight of nude mice in xenograft study; assay type: in vivo, Balb/c athymic nude mice
Method: 10^7 A549 or A427 NSCLC cells were injected subcutaneously into 6-week old Balb/c athymic nude mice. When tumors had reached approximately 0.4 cm diameter, treatment was begun with L-alanosine or saline by intraperitoneal injection every 12 hours.
Mice received 15 mg/kg per injection for 7 days then 22.5 mg/kg for 5 days. Tumor size was measured as the product of perpendicular diameters. The results for treated (n=6 [sample size] for each cell type) vs. control (n=4 [sample size] for each cell type) mice are shown in FIG. 5.

breast cancer = breast cancer patients; cited from earlier work
MES-SA/Dx5 cells [3] = experiment: growth of MES-SA/Dx5 drug resistant cells with L-alanosine and other agents; assay type: cell-based; settings: data not shown
[4] = test system: MTAse deficient H292 cells; experiment: proliferation in presence of L-alanosine with MTA or adenine added (FIG. 2); assay type: cell-based; settings: L-alanosine 40 μM
[5] = humans, intravenous, cited from earlier work
MTAse competent cancers = settings: cited from earlier work
A427 NSCLC cells = experiment: tumor xenograft in nude mice, MTAP-positive A427 cells (FIG. 5); assay type: in vivo, Balb/c athymic nude mice; settings: i.p. every 12 hours; 15 mg/kg per injection 7 days then 22.5 mg/kg 5 days
Method: as §1

MES-SA/Dx5 cells [6] = settings: cited from earlier work
[7] = test system: MTAse deficient CEM cells; experiment: growth restoration by MTAse substrates after L-alanosine (FIG. 3); assay type: cell-based
[8] = test system: MTAse competent MOLT-4 cells; experiment: as above; assay type: cell-based
[9] = test system: MTAse competent A427 cells; experiment: as above; assay type: cell-based
[10] = test system: MTAse deficient A549 cells; experiment: as above; assay type: cell-based

N[C@@H](CN(O)N=O)C(=O)O [L-alanosine]
dose limiting toxicity ([1]; continuous infusion about 125 mg/m^2 for 5 days, adults, acute non-lymphoblastic leukemia, phase II): mucositis | toxicity after multiple bolus dosing ([1]; multiple bolus dosing): Stomatitis and esophagitis | dose-limiting toxicity ([1]; prior clinical trials): renal toxicity, stomatitis, esophagitis | reactions with lesser frequency ([1]; prior clinical trials): myelosuppression, headache, nausea and hypo- or hypertension | dose at which renal toxicity occurred ([1]; single bolus dosing): above 4 g/m^2 body weight | dose at which two pediatric patients suffered liver failure ([1]; two pediatric patients, separate doses): about 350 mg/m^2 body weight per day | therapeutic response (melanoma): little therapeutic response observed | size of well-established MTAP-deficient tumors (A549 NSCLC cells): decrease in the size | overall response rate (human cancers; Phase II studies, Creagan et al.): 4% | efficacy for treatment of human cancers (human cancers; Tyagi and Cooney 1984): little encouragement | potency of L-alanosine in the resistant cell line relative to the other agents tested (MV522Q6 cells; MV522Q6 (MDR), three days in culture): ~10 times | potency in the resistant cell line vs the non-resistant cell line (MV522Q6 cells; MV522Q6 vs MV522): as, if not more, potent in the resistant cell line than in the non-resistant cell line | toxicity ([2]; 15 and 22.5 mg/kg per injection, i.p. every 12 hours): No toxicity was evident | body weight ([2]; throughout testing): stable weights | objective responses (breast cancer): no objective responses observed | effect on drug resistant cell line vs other agents tested (MES-SA/Dx5 cells [3]): significantly more affected by L-alanosine than by the other agents tested | inability to proliferate in the presence of L-alanosine despite MTA ([4]; H292 compared with Calu-6, with MTA): selective inability of MTAse deficient NSCLC cells to proliferate | plasma clearance [5]: biphasic | t1/2α ([5]; plasma, biphasic, approximate): ~14 min | t1/2β ([5]; plasma, biphasic, approximate): ~99 min | success in clinical trials (MTAse competent cancers): no appreciable success | effect on growth of MTAP-positive cells (A427 NSCLC cells): no effect on the growth

CC[C@]1(O)C[C@@H]2CN(CCc3c([nH]c4ccccc34)[C@@](C(=O)OC)(c3cc4c(cc3OC)N(C)[C@H]3[C@@](O)(C(=O)OC)[C@H](OC(C)=O)[C@]5(CC)C=CCN6CC[C@]43[C@@H]65)C2)C1 [vinblastine]
sensitivity of the resistant cell line to chemotherapy (MV522Q6 cells): greatly reduced | resistance level to chemotherapeutic agents (MES-SA/Dx5 cells [6]): highly resistant

CC(=O)O[C@H]1C(=O)[C@@]2(C)[C@H]([C@H](OC(=O)c3ccccc3)[C@]3(O)C[C@H](OC(=O)[C@H](O)[C@@H](NC(=O)c4ccccc4)c4ccccc4)C(C)=C1C3(C)C)[C@]1(OC(C)=O)CO[C@@H]1C[C@@H]2O [taxol]
sensitivity of the resistant cell line to chemotherapy (MV522Q6 cells): greatly reduced | resistance level to chemotherapeutic agents (MES-SA/Dx5 cells [6]): highly resistant

Nc1ncnc2nc[nH]c12 [adenine]
proliferation of control cultures containing adenine ([4]; control cultures with adenine (Calu-6 / H292)): proliferate despite L-alanosine

C[C@H]1O[C@@H](n2cnc3c(N)ncnc32)[C@H](O)[C@@H]1O [5'-deoxyadenosine]
growth restoration [7]: remained growth inhibited | growth restoration [8]: growth restoration | growth restoration [9]: growth restoration | growth restoration [10]: remained growth inhibited
